Values after ≈ are worked out from the molar mass of the structure shown. Read-outs that look alike come from different tables or passages of the source.
Columns and labels:
[1] = test system: Staphylococcus aureus X1.1; assay: MIC, standard agar-dilution assay, Staphylococcus aureus X1.1; assay type: cell-based
[2] = test system: Staphylococcus aureus V41; assay: MIC, standard agar-dilution assay, Staphylococcus aureus V41; assay type: cell-based
[3] = test system: Staphylococcus aureus X400; assay: MIC, standard agar-dilution assay, Staphylococcus aureus X400; assay type: cell-based
[4] = test system: Staphylococcus aureus S13E; assay: MIC, standard agar-dilution assay, Staphylococcus aureus S13E; assay type: cell-based
[5] = test system: Staphylococcus epidermidis EPI1; assay: MIC, standard agar-dilution assay, Staphylococcus epidermidis EPI1; assay type: cell-based
[6] = test system: Staphylococcus epidermidis EPI2; assay: MIC, standard agar-dilution assay, Staphylococcus epidermidis EPI2; assay type: cell-based
[7] = test system: Streptococcus pyogenes C203; assay: MIC, standard agar-dilution assay, Streptococcus pyogenes C203; assay type: cell-based
[8] = test system: Streptococcus pneumoniae Park I; assay: microbe, parasite or virus in culture; assay type: cell-based
[9] = test system: Streptococcus Group D X66; assay: MIC, standard agar-dilution assay, Streptococcus Group D X66; assay type: cell-based
Streptococcus Group 9960 = assay: MIC, standard agar-dilution assay, Streptococcus Group 9960; assay type: cell-based
[10] = test system: Haemophilus influenzae Holt; assay: MIC, standard agar-dilution assay, Haemophilus influenzae Holt; assay type: cell-based
[11] = test system: Haemophilus influenzae R252; assay: MIC, standard agar-dilution assay, Haemophilus influenzae R252; assay type: cell-based
Staphylococcus aureus = assay: MIC, broth-dilution microtiter test, Staphylococcus aureus; assay type: cell-based
Source text: (§1) The MIC's in Table X were obtained using conventional broth-dilution microtiter tests.

Streptococcus bovis 80 = assay: MIC, broth-dilution microtiter test, Streptococcus bovis 80; assay type: cell-based
Source text: as §1

[12] = test system: Pasteurella multocida 17E; assay: MIC, broth-dilution microtiter test, Pasteurella multocida 17E; assay type: cell-based
Source text: as §1

[13] = test system: Pasteurella multocida 60A; assay: MIC, broth-dilution microtiter test, Pasteurella multocida 60A; assay type: cell-based
Source text: as §1

[14] = test system: Pasteurella hemolytica 22C; assay: MIC, broth-dilution microtiter test, Pasteurella hemolytica 22C; assay type: cell-based
Source text: as §1

Mycoplasma gallisepticum = assay: MIC, broth-dilution microtiter test, Mycoplasma gallisepticum; assay type: cell-based
Source text: as §1

Mycoplasma synoviae = assay: MIC, broth-dilution microtiter test, Mycoplasma synoviae; assay type: cell-based
Source text: as §1

Mycoplasma hyorhinis = assay: MIC, broth-dilution microtiter test, Mycoplasma hyorhinis; assay type: cell-based
Source text: as §1

Mycoplasma hyopneumoniae = assay: MIC, broth-dilution microtiter test, Mycoplasma hyopneumoniae; assay type: cell-based; conditions: Mycoplasma hyopneumoniae, broth-dilution microtiter
Source text: as §1

[15] = test system: Streptococcus pyogenes C203; assay: In vivo protection of mice experimentally infected with S. pyogenes C203; conditions: mice, doses given 1 and 4 hours post-infection; for ED50: Streptococcus pyogenes
Description: The C-20 modified derivatives of this invention have shown in vivo antimicrobial activity against experimentally-induced infections in laboratory animals. When two doses of test compound were administered to mice experimentally infected with S. pyogenes C203, the activity observed was measured as an ED50 value [effective dose in mg/kg to protect 50% of the test animals: see Warren Wick, et al., J. Bacteriol. 81, 233-235 (1961)].

Pasteurella multocida [16] = assay: Subcutaneous treatment of Pasteurella multocida-infected chicks; assay type: in vivo, one-day-old chicks
Description: (§2) Many of the C-20 modified derivatives of this invention have also shown in vivo antibacterial activity against infections induced by gram-negative bacteria. Tables XII and XIII summarize the results of tests in which illustrative compounds were evaluated against Pasteurella infection in one-day-old chicks. The compounds were administered parenterally or orally after challenge of the chicks with Pasteurella multocida (0.1 ml of a 10^-4 dilution of a twenty-hour tryptose broth culture of an avian P. multocida given subcutaneously). In these tests, unless indicated otherwise, all non-medicated infected chicks died within 24 hours of Pasteurella challenge. In the tests summarized in Table XII the compounds were administered by subcutaneous injection at a dosage of 30 mg/kg, 1 and 4 hours post-challenge of the chicks with P. multocida. In the test summarized in Table XIII the compounds were administered by gavage at 1 and 5 hours post-challenge of the chicks with P. multocida.

Pasteurella multocida [17] = assay: Oral (gavage) treatment of Pasteurella multocida-infected chicks; assay type: in vivo, one-day-old chicks
Description: as §2

[18] = 30 mg/kg × 2, 1 and 4 hours post-challenge
[19] = Mesomycoplasma hyopneumoniae, read-out: MIC
[20] = C203, sc, subcutaneous, read-out: ED50, Subcutaneous
[21] = C203, oral, read-out: ED50, Oral
[22] = 2.0 g/gal equivalent, 11/20 infected nonmedicated chicks died in this test

CCC1OC(=O)CC(O)C(C)C(OC2OC(C)C(O)C(N(C)C)C2O)C(CCS(=O)(=O)c2ccc(C)cc2)CC(C)C(=O)C=CC(C)=CC1COC1OC(C)C(O)C(OC)C1OC (stereo not shown) [Compound 46, 20-DH-DO-20-(p-Toluenesulfonyl)desmycosin] showed an MIC ([1]; Staphylococcus aureus X1.1, agar dilution) of 0.25 µg/mL (≈ 0.274 µM), an MIC ([2]; Staphylococcus aureus V41, penicillin-resistant strain, agar dilution) of 0.25 µg/mL (≈ 0.274 µM) and an MIC ([3]; Staphylococcus aureus X400, methicillin-resistant strain, agar dilution) of 0.25 µg/mL (≈ 0.274 µM). For the same compound, the MIC ([4]; Staphylococcus aureus S13E, agar dilution) was 0.25 µg/mL (≈ 0.274 µM), the MIC ([5]; Staphylococcus epidermidis EPI1, agar dilution) was 0.25 µg/mL (≈ 0.274 µM) and the MIC ([6]; Staphylococcus epidermidis EPI2, agar dilution) was 0.12 µg/mL (≈ 0.132 µM). For the same compound, the MIC ([7]; Streptococcus pyogenes C203, agar dilution) was 1 µg/mL (≈ 1.1 µM), the MIC ([8]; Streptococcus pneumoniae Park I, agar dilution) was 1 µg/mL (≈ 1.1 µM) and the MIC ([9]; Streptococcus Group D X66, agar dilution) was 8 µg/mL (≈ 8.77 µM). For the same compound, the MIC (Streptococcus Group 9960; Streptococcus Group 9960, agar dilution) was 8 µg/mL (≈ 8.77 µM), the MIC ([10]; Haemophilus influenzae Holt, ampicillin-sensitive strain, agar dilution) was 4 µg/mL (≈ 4.39 µM) and the MIC ([11]; Haemophilus influenzae R252, ampicillin-resistant strain, agar dilution) was 8 µg/mL (≈ 8.77 µM). For the same compound, the MIC (Staphylococcus aureus; broth-dilution microtiter) was 0.39 µg/mL (≈ 0.428 µM), the MIC (Streptococcus bovis 80; Streptococcus bovis 80, broth-dilution microtiter) was 6.25 µg/mL (≈ 6.85 µM) and the MIC ([12]; Pasteurella multocida 17E, bovine isolate, broth-dilution microtiter) was 12.5 µg/mL (≈ 13.7 µM). The MIC ([13]; Pasteurella multocida 60A, avian isolate, broth-dilution microtiter) was 12.5 µg/mL (≈ 13.7 µM), the MIC ([14]; Pasteurella hemolytica 22C, broth-dilution microtiter) was 12.5 µg/mL (≈ 13.7 µM) and the MIC (Mycoplasma gallisepticum; Mycoplasma gallisepticum, broth-dilution microtiter) was 0.19 µg/mL (≈ 0.208 µM). The MIC (Mycoplasma synoviae; Mycoplasma synoviae, broth-dilution microtiter) was 0.78 µg/mL (≈ 0.855 µM), the MIC (Mycoplasma hyorhinis; Mycoplasma hyorhinis, broth-dilution microtiter) was 50 µg/mL (≈ 54.8 µM) and the MIC (Mycoplasma hyopneumoniae) was 12.5 µg/mL (≈ 13.7 µM). For the same compound, the “ED50, Oral” value ([15]; oral) was greater than 50 mg/kg × 2, the “ED50, Subcutaneous” value ([15]; subcutaneous) was 4.2 mg/kg × 2 and the “Number of Deaths/Number Treated” value (Pasteurella multocida [16]; [18]) was 0/10.
Work on CCOC(=O)C1CSC(CC2CC(C)C(=O)C=CC(C)=CC(COC3OC(C)C(O)C(OC)C3OC)C(CC)OC(=O)CC(O)C(C)C2OC2OC(C)C(O)C(N(C)C)C2O)N1 (stereo not shown) [Compound 76] yielded an MIC ([1]; Staphylococcus aureus X1.1, agar dilution, read-out: MIC) of 0.51 µg/mL (≈ 0.565 µM), an MIC ([2]; Staphylococcus aureus, V41) of 0.5 µg/mL (≈ 0.554 µM) and an MIC ([3]; Staphylococcus aureus X400, methicillin-resistant strain, agar dilution, read-out: MIC) of 2400 µg/mL (≈ 2660 µM). For the same compound, the MIC ([5]; Staphylococcus epidermidis EPI1, agar dilution, read-out: MIC) was 0.51 µg/mL (≈ 0.565 µM), the MIC ([6]; Staphylococcus epidermidis, EPI2) was 0.25 µg/mL (≈ 0.277 µM) and the MIC ([7]; Streptococcus pyogenes C203, agar dilution, read-out: MIC) was 0.53 µg/mL (≈ 0.587 µM). For the same compound, the MIC ([8]; Streptococcus pneumoniae) was 0.25 µg/mL (≈ 0.277 µM), the MIC ([9]; Streptococcus Group D X66, agar dilution, read-out: MIC) was 466 µg/mL (≈ 516 µM) and the MIC ([11]; Haemophilus influenzae R252, ampicillin-resistant strain, read-out: MIC) was 3250 µg/mL (≈ 3600 µM). For the same compound, the MIC (Staphylococcus aureus) was 0.78 µg/mL (≈ 0.864 µM), the MIC (Streptococcus bovis 80; Streptococcus equinus, 80) was 3.12 µg/mL (≈ 3.45 µM) and the MIC ([12]; Pasteurella multocida 17E, bovine isolate, broth-dilution microtiter, read-out: MIC) was 25 µg/mL (≈ 27.7 µM). For the same compound, the MIC ([13]; Pasteurella multocida 60A, avian isolate, broth-dilution microtiter, read-out: MIC) was 25 µg/mL (≈ 27.7 µM), the MIC ([14]; Pasteurella hemolytica 22C, broth-dilution microtiter, read-out: MIC) was 25 µg/mL (≈ 27.7 µM) and the MIC (Mycoplasma gallisepticum; Mycoplasmoides gallisepticum) was 1.56 µg/mL (≈ 1.73 µM). It also gave an MIC (Mycoplasma synoviae; Mycoplasmopsis synoviae) of 3.12 µg/mL (≈ 3.45 µM), an MIC (Mycoplasma hyorhinis; Mycoplasma) of 50 µg/mL (≈ 55.4 µM) and an MIC (Mycoplasma hyopneumoniae; [19]) of 0.19 µg/mL (≈ 0.21 µM). The ED50 [15, 20] was 4.8 mg/kg, the ED50 [15, 21] was 17 mg/kg and the “Number of Deaths/Number Treated” value (Pasteurella multocida [16]; [18]) was 3/10. For the same compound, the “Number of Deaths/Number tested” value (Pasteurella multocida [17]; 0.5 g/gal equivalent) was 3/10, the “Number of Deaths/Number tested” value (Pasteurella multocida [17]; 1.0 g/gal equivalent, 13/20 infected nonmedicated chicks died in this test) was 4/10 and the “Number of Deaths/Number tested” value (Pasteurella multocida [17]; [22]) was 4/10.
In the case of CCC1OC(=O)CC(O)C(C)C(OC2OC(C)C(O)C(N(C)C)C2O)C(CC2SCCN2Cc2ccccc2)CC(C)C(=O)C=CC(C)=CC1COC1OC(C)C(O)C(OC)C1OC (stereo not shown) [Compound 77], the MIC ([1]; Staphylococcus aureus, X1.1) is reported as 0.25 µg/mL (≈ 0.271 µM), the MIC ([2]; Staphylococcus aureus, V41) is reported as 0.25 µg/mL (≈ 0.271 µM) and the MIC ([3]; Staphylococcus aureus, X400) is reported as 0.25 µg/mL (≈ 0.271 µM). For the same compound, the MIC ([4]; Staphylococcus aureus, S13E) was 0.25 µg/mL (≈ 0.271 µM), the MIC ([5]; Staphylococcus epidermidis, EPI1) was 0.25 µg/mL (≈ 0.271 µM) and the MIC ([6]; Staphylococcus epidermidis EPI2, agar dilution, read-out: MIC) was 0.12 µg/mL (≈ 0.13 µM). The MIC ([7]; Streptococcus pyogenes, C203) was 0.25 µg/mL (≈ 0.271 µM), the MIC ([8]; Streptococcus pneumoniae) was 1 µg/mL (≈ 1.09 µM) and the MIC [9] was 4 µg/mL (≈ 4.34 µM). It also gave an MIC (Streptococcus Group 9960; GROUP9960) of 4 µg/mL (≈ 4.34 µM), an MIC ([10]; Haemophilus influenzae) of 16 µg/mL (≈ 17.4 µM) and an MIC ([11]; Haemophilus influenzae, R252) of 16 µg/mL (≈ 17.4 µM). For the same compound, the MIC (Staphylococcus aureus; broth-dilution microtiter, read-out: MIC) was 0.39 µg/mL (≈ 0.423 µM), the MIC (Streptococcus bovis 80; Streptococcus equinus, 80) was 3.12 µg/mL (≈ 3.39 µM) and the MIC ([12]; Pasteurella multocida, 17E) was 12.5 µg/mL (≈ 13.6 µM). For the same compound, the MIC ([13]; Pasteurella multocida, 60A) was 12.5 µg/mL (≈ 13.6 µM), the MIC ([14]; Pasteurella, 22C) was 12.5 µg/mL (≈ 13.6 µM) and the MIC (Mycoplasma gallisepticum; Mycoplasmoides gallisepticum, Mycoplasma gallisepticum, broth-dilution microtiter, read-out: MIC) was 0.09 µg/mL (≈ 0.0977 µM). For the same compound, the MIC (Mycoplasma synoviae; Mycoplasmopsis synoviae, Mycoplasma synoviae, broth-dilution microtiter, read-out: MIC) was 0.19 µg/mL (≈ 0.206 µM), the MIC (Mycoplasma hyorhinis; Mycoplasma) was 6.25 µg/mL (≈ 6.78 µM) and the MIC (Mycoplasma hyopneumoniae; [19]) was 0.19 µg/mL (≈ 0.206 µM). The ED50 [15, 20] was greater than 10 mg/kg, the ED50 [15, 21] was 19 mg/kg and the “Number of Deaths/Number Treated” value (Pasteurella multocida [16]; 30 mg/kg × 2, 8/10 and 9/10 of two groups of infected nonmedicated chicks died) was 8/10. For the same compound, the “Number of Deaths/Number tested” value (Pasteurella multocida [17]; [22]) was 4/10.
